In ChEMBL document CHEMBL1156829 (Proc Natl Acad Sci U S A, 2008) one finds EC50 and CC50 data, which are given here for 53 compounds.

For data set [1], the system named is Plasmodium falciparum. Nature of the data set: NOVARTIS: Inhibition of Plasmodium falciparum W2 (drug-resistant) proliferation in erythrocyte-based infection assay. It counts as functional, organism-based. The conditions noted are these: Plasmodium falciparum, W2; read-out: EC50.
Data set [2] can be described thus: NOVARTIS: Cytotoxicity against human hepatocellular carcinoma cell line (Huh7). Format: toxicity, cell-based, Huh-7. To be noted: Huh7 cells (hepatocellular carcinoma cell line).
Data set [3] relates to Plasmodium falciparum. Nature of the data set: NOVARTIS: Inhibition of Plasmodium falciparum 3D7 (drug-susceptible) proliferation in erythrocyte-based infection assay. It counts as functional, organism-based. The conditions noted are these: Plasmodium falciparum, 3D7.

In the case of `CCN(CC)S(=O)(=O)c1ccc(-c2csc(=Nc3cccc4ccccc34)n2C)cc1`, the EC50 in the data set with Plasmodium falciparum [1] is above 1220 nM; in the data set with Plasmodium falciparum [3], 60.9 nM. In addition, the CC50 in data set [2] was above 10000 nM.
For the compound `CCOC(=O)C(C)Oc1cccc2c(=O)n(CC(=O)Nc3ccc(OC(F)(F)F)cc3)ccc12` (centres undefined), the figures for the EC50 in the data set on Plasmodium falciparum [1] and in the data set on Plasmodium falciparum [3] were above 1220 nM and above 1250 nM, respectively. The same compound gave a cytotoxic concentration (CC50) in data set [2] above 10000 nM.
For `O=C(Nc1ccc(-c2cc(-c3ccccc3)nc(-c3ccc(NC(=O)c4cccc([N+](=O)[O-])c4)cc3)n2)cc1)c1cccc([N+](=O)[O-])c1` the same measures were 1240 nM, 1340 nM and above 10000 nM.
For `CC1=NOC(=O)/C1=C\c1cccs1` the same measures were above 1240 nM, above 1250 nM and above 10000 nM.
For `CCOc1ccc(S(=O)(=O)Oc2cccc3cccnc23)cc1` the same measures were above 1190 nM, above 1690 nM and above 10000 nM.
For the compound `CC1(C)N=C(N)N=C(N)N1c1ccc(I)cc1`, the figures for the EC50 in the data set on Plasmodium falciparum [1] and in the data set with Plasmodium falciparum [3] were above 12500 nM and 7.23 nM, respectively. Moreover, the cytotoxic concentration (CC50) in data set [2] was above 100000 nM.
Take `CC(C)CNc1nc(NCCCN2CCCC2)ncc1C(=O)NCc1ccccc1`: the EC50 with Plasmodium falciparum [1] was above 1230 nM; in the data set on Plasmodium falciparum [3] it was 664 nM. The same compound returned a CC50 in data set [2] above 10000 nM.
For `CC(C)CC(=O)OC1C(N2CCCCC2)c2c(ccc(C=CC(=O)N3CCCCC3)c2O)OC1(C)C` (centres undefined) the same measures were above 12300 nM, 2600 nM and above 100000 nM.
With `O=C(C1CC1)n1cc(C(=O)C(F)(F)F)c2ccccc21`, the EC50 in the data set on Plasmodium falciparum [1] was above 1220 nM; with Plasmodium falciparum [3], 1370 nM. In data set [2], this compound returned a CC50 above 10000 nM.
For `COC(=O)C1=C(C)N(c2ccc(N(C)C)cc2)C(C)=C(C(=O)OC)C1c1ccc(Br)cc1` the same measures were above 1220 nM, above 1250 nM and above 10000 nM.
For `CC(=O)N1CCOC1C(C)(C)C/C=C(\C)CCC=C(C)C` (centres undefined) the same measures were above 1690 nM, 806 nM and above 14100 nM.
Consider `Cc1ccc(C)c(N2C(=O)CC(Cc3ccc(Cl)cc3)C2=O)c1` (centres undefined), for which the EC50 with Plasmodium falciparum [1] is 1230 nM; with Plasmodium falciparum [3], above 1250 nM. For the same compound, in data set [2], the CC50 is above 10000 nM.
Turning to `CCOC(=O)c1cnc2c(OC)cccc2c1Nc1cc(C)c(Cl)cc1OC`, the EC50 with Plasmodium falciparum [1] is above 1230 nM; in the data set with Plasmodium falciparum [3], 539 nM. The compound further returned a CC50 in data set [2] above 10000 nM.
For `c1cncc(-c2cc(NCCCN3CCOCC3)nc(-c3ccncc3)n2)c1`, the EC50 with Plasmodium falciparum [1] was 1210 nM; in the data set with Plasmodium falciparum [3] it was 1080 nM. The CC50 in data set [2] was above 10000 nM.
For `CC(CCCC(C)(C)O)Nc1cncc(-c2ccc(C(N)=O)cc2)n1` (centres undefined) the same measures were above 1200 nM, above 1250 nM and above 10000 nM.
For `CCCCCN(C(=O)c1ccc2ccccc2c1)C(CC)c1nc2ccccc2c(=O)n1-c1ccccc1OC` (centres undefined) the same measures were above 1230 nM, 752 nM and above 10000 nM.
For `COc1cc(/C=C(\C#N)c2nc3ccccc3[nH]2)ccc1OCc1ccccc1` the same measures were 1210 nM, 728 nM and above 10000 nM.
As to `O=C(Nc1ccc(-c2nc3cc(-c4nc5ccccc5o4)ccc3[nH]2)cc1)c1ccc([N+](=O)[O-])cc1`, the values for the EC50 with Plasmodium falciparum [1] and in the data set on Plasmodium falciparum [3] were 1200 nM and 1050 nM, respectively. Also, the half-maximal cytotoxic concentration (CC50) in data set [2] is above 10000 nM.
For `COc1cc(OC)cc(-n2nc(C(=O)NC3CCCCC3)c3ccccc3c2=O)c1` the same measures were above 1220 nM, above 1250 nM and above 10000 nM.
For `CCCn1c(-c2cccc(Br)c2)nc2ccccc21` the same measures were above 1220 nM, above 1140 nM and above 10000 nM.
For `CCN(CC)c1ccc(C2N(Cc3ccccc3)CCN2Cc2ccccc2)c(O)c1` the same measures were 2820 nM, 2360 nM and 23600 nM.
As to `CCOc1cc([N+](=O)[O-])cc(C=Nc2cccc(NC(=O)c3ccco3)c2)c1O`, the EC50 in the data set on Plasmodium falciparum [1] is above 1240 nM; with Plasmodium falciparum [3], above 1250 nM. Besides, the cytotoxic concentration (CC50) in data set [2] was above 10000 nM.
For `O=C(NC1CCN(Cc2ccccc2)CC1)c1cc([N+](=O)[O-])cc([N+](=O)[O-])c1` the same measures were 1220 nM, 476 nM and above 10000 nM.
For `O=C(Cn1c(-c2ccccc2)c[n+]2ccsc12)c1ccccc1` the same measures were 1220 nM, 517 nM and above 10000 nM.
For `COC(F)(C(=O)Nc1c(C)n(C)n(-c2ccccc2)c1=O)C(F)(F)F` (centres undefined) the same measures were above 1100 nM, 1550 nM and above 9060 nM.
With `COc1cc(NC(C)CCCN(Cc2ccccc2OC)C(=O)c2ccc(C)c([N+](=O)[O-])c2)c2ncccc2c1` (centres undefined), the EC50 came to 555 nM in the data set on Plasmodium falciparum [1] and 873 nM in the data set with Plasmodium falciparum [3]. The compound further yielded a half-maximal cytotoxic concentration (CC50) in data set [2] of 4640 nM.
`COc1cc(NC(=O)C(F)(F)F)c(C(=O)c2ccc(C(F)(F)F)cc2)cc1OC`: the EC50 is above 1200 nM in the data set with Plasmodium falciparum [1] and 1140 nM in the data set with Plasmodium falciparum [3]. This compound came in with a CC50 in data set [2] above 10000 nM.
Take `CCn1c(-c2ccc(O)cc2)nn(CN2CCN(Cc3ccc4c(c3)OCO4)CC2)c1=S`: the EC50 was above 1200 nM in the data set on Plasmodium falciparum [1] and above 1250 nM with Plasmodium falciparum [3]. The CC50 in data set [2] was above 10000 nM.
For `CCOc1ccccc1NC(=O)CN1CCN(C(=O)c2ccco2)CC1` the same measures were 12000 nM, 5460 nM and above 100000 nM.
For `O=C(Nc1cccc(Oc2ccccc2)c1)NC(CN1CCCC1)c1ccccc1` (centres undefined) the same measures were 1430 nM, 704 nM and 11800 nM.
In the case of `O=C(C1CCC(Cn2c(=S)[nH]c3ccccc3c2=O)CC1)N1CC=C(c2ccccc2)CC1` (centres undefined), the EC50 is 1200 nM in the data set on Plasmodium falciparum [1] and above 964 nM in the data set on Plasmodium falciparum [3]. The CC50 in data set [2] was above 10000 nM.
For `CC1CCCCN1CCCNc1ncc(C(=O)NCCc2ccccc2)c(NCC2CCCCC2)n1` (centres undefined) the same measures were 1200 nM, 602 nM and above 10000 nM.
For `CC(C)Cc1ccc(/C=C/C(=O)NC2CC2)cc1` the same measures were above 1200 nM, 913 nM and above 10000 nM.
For `COc1ccc(C(=O)Nc2ccc3nsnc3c2)cc1OC` the same measures were above 1250 nM, above 1250 nM and above 10000 nM.
Consider `COc1ccc(-c2nc3cc(Cc4ccc5[nH]c(-c6ccc(OC)cc6)nc5c4)ccc3[nH]2)cc1`, for which the figures for the EC50 in the data set with Plasmodium falciparum [1] and with Plasmodium falciparum [3] were 775 nM and 234 nM, respectively. Further, the CC50 in data set [2] turned out to be 6220 nM.
For `CCOC(=O)c1c(NC(=O)CSc2nnc(CNC(=O)c3cccs3)n2-c2cccc(Cl)c2)sc2c1CCCC2` the same measures were above 1240 nM, above 1140 nM and above 10000 nM.
For `CC(C)N(CC(=O)Nc1cc(C(C)(C)C)nn1-c1ccc(Cl)cc1)C(=O)c1cccc2ccccc12` the same measures were above 1240 nM, 1210 nM and above 10000 nM.
For the compound `O=C(O)c1nsnc1C(O)C(O)C(=O)O` (centres undefined), the values for the EC50 with Plasmodium falciparum [1] and with Plasmodium falciparum [3] were above 1240 nM and above 1410 nM, respectively. For the same compound, in data set [2], the CC50 was above 10000 nM.
As to `CCC(c1nc2cc(Cl)ccc2c(=O)n1CC)N(CC)C(=O)c1ccc2ccccc2c1` (centres undefined), the EC50 in the data set on Plasmodium falciparum [1] is 1230 nM; in the data set on Plasmodium falciparum [3], above 1220 nM. The CC50 in data set [2] was above 10000 nM.
As to `O=C1C(Nc2ccc(O)cc2)=CC(=NS(=O)(=O)c2cccs2)c2ccccc21`, the EC50 with Plasmodium falciparum [1] was found to be 297 nM; with Plasmodium falciparum [3], 590 nM. For the same compound, the CC50 in data set [2] was determined as 2430 nM.
For `Cn1c(=O)c2c(nc(N3CCN(C(=O)Nc4ccc(F)cc4F)CC3)n2C)n(C)c1=O` the same measures were 1200 nM, above 1250 nM and above 10000 nM.
For `CC[n+]1c(/C=C/C=C2\N(C)c3ccccc3C2(C)C)n(-c2ccccc2)c2ccc(Cl)cc21` the same measures were above 1220 nM, above 1500 nM and above 10000 nM.
For `CCCCCCOc1ccc(NC(=O)c2ccco2)cc1` the same measures were 1200 nM, 1390 nM and above 10000 nM.
In the case of `Cc1cc(C)cc(OCC(=O)N2N=C(C(C)C)CC2(O)C(F)(F)F)c1` (centres undefined), the EC50 with Plasmodium falciparum [1] is above 1220 nM; with Plasmodium falciparum [3] it was 1750 nM. Besides, the CC50 in data set [2] is above 10000 nM.
For `COc1cc(/C=C2\SC(c3ccc(C)cc3)=NC2=O)cc(OC)c1OC` the same measures were above 1220 nM, above 1250 nM and above 10000 nM.
As to `Clc1ccc(C2Nc3ccc4ccccc4c3C3C=CCC32)c(Cl)c1` (centres undefined), the half-maximal effective concentration (EC50) is above 1200 nM with Plasmodium falciparum [1] and above 1250 nM in the data set on Plasmodium falciparum [3]. The CC50 in data set [2] was above 10000 nM.
Regarding `CCOc1ccc2[nH]c(=O)c(CN(Cc3ccccc3OC)C(C)=O)cc2c1`, the values for the EC50 with Plasmodium falciparum [1] and with Plasmodium falciparum [3] were above 1210 nM and above 1740 nM, respectively. In data set [2], this compound gave a CC50 above 10000 nM.
On to `COc1cccc(NC(=O)N(Cc2ccccc2)C(C)c2nc3ccccc3c(=O)n2-c2cc(C)ccc2OC)c1` (centres undefined), for which the EC50 came out at 1220 nM with Plasmodium falciparum [1] and 1240 nM in the data set with Plasmodium falciparum [3]. In data set [2], this compound gave a CC50 above 10000 nM.
For `COc1cccc(CNc2cc(C(=O)NCCNC(C)=O)cc(S(=O)(=O)N(C)C)c2)c1OC` the same measures were above 1210 nM, above 431 nM and above 10000 nM.
As to `CN1CCCN(C(=O)C2CC23CCN(Cc2ccc(N(C)c4ccccc4)cc2)CC3)CC1` (centres undefined), the EC50 with Plasmodium falciparum [1] amounted to 2580 nM; in the data set with Plasmodium falciparum [3], 1320 nM. Besides, it took 20800 nM to reach half-maximal cytotoxicity in data set [2] (CC50).
Take `Cc1ccc(-c2nnc(N3CCOCC3)c3ccccc23)cc1S(=O)(=O)N1CCN(C)CC1`: the results for the EC50 with Plasmodium falciparum [1] and in the data set with Plasmodium falciparum [3] were above 1220 nM and above 1250 nM, respectively. The compound also gave a CC50 in data set [2] above 10000 nM.
For `COc1ccc(C2(Cc3ccccc3)NC(=O)NC2=O)cc1` (centres undefined) the same measures were above 1220 nM, 1340 nM and above 10000 nM.
For `Oc1ccc(-c2cncc(NCc3cccc(O)c3)c2)cc1` the same measures were 1250 nM, 626 nM and above 10000 nM.
